The source of these data is BindingDB's records for doi:10.1021/jm000541z (Abbott Laboratories, 2001).

For this assay, the target named is Alpha-1B adrenergic receptor (Mesocricetus auratus) (UniProt P18841). Kind of assay: Binding affinity to hamster alpha-1B adrenergic receptor.
Alpha-1B adrenergic receptor (Mesocricetus auratus), sequence (P18841 whole entry, looked up): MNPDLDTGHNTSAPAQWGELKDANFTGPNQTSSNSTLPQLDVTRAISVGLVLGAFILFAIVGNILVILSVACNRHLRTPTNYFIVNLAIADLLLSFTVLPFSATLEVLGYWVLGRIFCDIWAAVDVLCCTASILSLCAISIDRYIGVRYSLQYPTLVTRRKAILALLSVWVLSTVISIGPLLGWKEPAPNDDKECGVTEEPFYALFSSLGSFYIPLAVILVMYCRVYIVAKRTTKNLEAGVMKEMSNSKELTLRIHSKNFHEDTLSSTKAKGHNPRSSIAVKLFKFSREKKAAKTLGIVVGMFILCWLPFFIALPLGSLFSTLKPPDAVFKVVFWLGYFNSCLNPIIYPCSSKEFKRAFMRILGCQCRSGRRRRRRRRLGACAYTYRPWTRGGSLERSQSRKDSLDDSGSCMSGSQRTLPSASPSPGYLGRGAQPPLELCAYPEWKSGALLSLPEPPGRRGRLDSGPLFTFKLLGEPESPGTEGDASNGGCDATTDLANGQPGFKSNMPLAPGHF
As to `COc1cc(N)c(C(=O)NCCN2C[C@@H]3CCc4c(OC)cccc4[C@@H]3C2)cc1OC` [2-Amino-4,5-dimethoxy-N-[2-(6-methoxy-1,3,3a,4,5,9b-hexahydro-benzo[e]isoindol-2-yl)-ethyl]-benzamide], the Ki (as a rule, the equilibrium dissociation constant of an inhibitor or competing ligand from its target) was found to be 29.1 nM.
For `COc1cc2c(cc1OC)CN(CCN1C[C@@H]3CCc4c(OC)cccc4[C@@H]3C1)CC2` [2-[2-(6,7-Dimethoxy-3,4-dihydro-1H-isoquinolin-2-yl)-ethyl]-6-methoxy-2,3,3a,4,5,9b-hexahydro-1H-benzo[e]isoindole] the value was 116 nM; for `COc1cccc2c1CC[C@H]1CN(CCn3c(=O)[nH]c4c(sc5ncc(Cl)nc54)c3=O)C[C@@H]21` [3-Chloro-7-[2-(6-methoxy-1,3,3a,4,5,9b-hexahydro-benzo[e]isoindol-2-yl)-ethyl]-5H-9-thia-1,4,5,7-tetraaza-fluorene-6,8-dione], 35.1 nM; for `COc1cccc2c1CC[C@H]1CN(CCn3c(=O)[nH]c4[nH]ccc4c3=O)C[C@@H]21` [3-[2-(6-Methoxy-1,3,3a,4,5,9b-hexahydro-benzo[e]isoindol-2-yl)-ethyl]-1,7-dihydro-pyrrolo[2,3-d]pyrimidine-2,4-dione], 2.58 nM.
The result for `COc1cccc2c1CC[C@H]1CN(CCn3c(=O)[nH]c4nccnc4c3=O)C[C@@H]21` [3-[2-(6-Methoxy-1,3,3a,4,5,9b-hexahydro-benzo[e]isoindol-2-yl)-ethyl]-1H-pteridine-2,4-dione] reads 12.6 nM; that for `COc1cccc2c1CC[C@H]1CN(CCn3c(=O)[nH]c4ncccc4c3=O)C[C@@H]21` [3-[2-(6-Methoxy-1,3,3a,4,5,9b-hexahydro-benzo[e]isoindol-2-yl)-ethyl]-1H-pyrido[2,3-d]pyrimidine-2,4-dione], 3.31 nM.
For `COc1cccc2c1CC[C@H]1CN(CCn3c(=O)[nH]c4cccnc4c3=O)C[C@@H]21` [3-[2-(6-Methoxy-1,3,3a,4,5,9b-hexahydro-benzo[e]isoindol-2-yl)-ethyl]-1H-pyrido[3,2-d]pyrimidine-2,4-dione] the value was 8.2 nM; for `COc1cccc2c1CC[C@H]1CN(CCn3c(=O)[nH]c4cnccc4c3=O)C[C@@H]21` [3-[2-(6-Methoxy-1,3,3a,4,5,9b-hexahydro-benzo[e]isoindol-2-yl)-ethyl]-1H-pyrido[3,4-d]pyrimidine-2,4-dione], 3.1 nM.
In turn, `COc1cccc2c1CC[C@H]1CN(CCn3c(=O)[nH]c4ccncc4c3=O)C[C@@H]21` [3-[2-(6-Methoxy-1,3,3a,4,5,9b-hexahydro-benzo[e]isoindol-2-yl)-ethyl]-1H-pyrido[4,3-d]pyrimidine-2,4-dione] returned a Ki of 10.6 nM.
The result for `COc1cccc2c1CC[C@H]1CN(CCn3c(=O)[nH]c4ccccc4c3=O)C[C@@H]21` [3-[2-(6-Methoxy-1,3,3a,4,5,9b-hexahydro-benzo[e]isoindol-2-yl)-ethyl]-1H-quinazoline-2,4-dione] reads 1.16 nM.
The result for `COc1cccc2c1CC[C@H]1CN(CCn3c(=O)[nH]c4sccc4c3=O)C[C@@H]21` [3-[2-(6-Methoxy-1,3,3a,4,5,9b-hexahydro-benzo[e]isoindol-2-yl)-ethyl]-1H-thieno[2,3-d]pyrimidine-2,4-dione] reads 2.11 nM.
For the molecule `COc1cccc2c1CC[C@H]1CN(CCn3c(=O)[nH]c4ccsc4c3=O)C[C@@H]21` [3-[2-(6-Methoxy-1,3,3a,4,5,9b-hexahydro-benzo[e]isoindol-2-yl)-ethyl]-1H-thieno[3,2-d]pyrimidine-2,4-dione], the affinity corresponds to a Ki of 1.63 nM.
The result for `COc1cccc2c1CC[C@H]1CN(CCn3c(=O)[nH]c4cscc4c3=O)C[C@@H]21` [3-[2-(6-Methoxy-1,3,3a,4,5,9b-hexahydro-benzo[e]isoindol-2-yl)-ethyl]-1H-thieno[3,4-d]pyrimidine-2,4-dione] reads 1.01 nM; that for `COc1cccc2c1CC[C@H]1CN(CCn3c(=O)[nH]c4cc(C#N)ccc4c3=O)C[C@@H]21` [3-[2-(6-Methoxy-1,3,3a,4,5,9b-hexahydro-benzo[e]isoindol-2-yl)-ethyl]-2,4-dioxo-1,2,3,4-tetrahydro-quinazoline-7-carbonitrile], 1.56 nM; that for `COC(=O)c1ccc2c(=O)n(CCN3C[C@@H]4CCc5c(OC)cccc5[C@@H]4C3)c(=O)[nH]c2c1` [3-[2-(6-Methoxy-1,3,3a,4,5,9b-hexahydro-benzo[e]isoindol-2-yl)-ethyl]-2,4-dioxo-1,2,3,4-tetrahydro-quinazoline-7-carboxylic acid methyl ester], 1.64 nM.
`COC(=O)c1cc2[nH]c(=O)n(CCN3C[C@@H]4CCc5c(OC)cccc5[C@@H]4C3)c(=O)c2s1` [3-[2-(6-Methoxy-1,3,3a,4,5,9b-hexahydro-benzo[e]isoindol-2-yl)-ethyl]-2,4-dioxo-1,2,3,4-tetrahydro-thieno[3,2-d]pyrimidine-6-carboxylic acid methyl ester]: the Ki was 3.37 nM.
The result for `COc1cccc2c1CC[C@H]1CN(CCn3c(=O)[nH]c4cccc(C)c4c3=O)C[C@@H]21` [3-[2-(6-Methoxy-1,3,3a,4,5,9b-hexahydro-benzo[e]isoindol-2-yl)-ethyl]-5-methyl-1H-quinazoline-2,4-dione] reads 1.04 nM; that for `COc1cccc2c1CC[C@H]1CN(CCn3c(=O)[nH]c4cc(C)c(C)cc4c3=O)C[C@@H]21` [3-[2-(6-Methoxy-1,3,3a,4,5,9b-hexahydro-benzo[e]isoindol-2-yl)-ethyl]-6,7-dimethyl-1H-quinazoline-2,4-dione], 4.07 nM; that for `COc1cccc2c1CC[C@H]1CN(CCn3c(=O)[nH]c4c(C)cc(C)cc4c3=O)C[C@@H]21` [3-[2-(6-Methoxy-1,3,3a,4,5,9b-hexahydro-benzo[e]isoindol-2-yl)-ethyl]-6,8-dimethyl-1H-quinazoline-2,4-dione], 16.3 nM.
For `COc1cccc2c1CC[C@H]1CN(CCn3c(=O)[nH]c4cc(-c5ccccc5)sc4c3=O)C[C@@H]21` [3-[2-(6-Methoxy-1,3,3a,4,5,9b-hexahydro-benzo[e]isoindol-2-yl)-ethyl]-6-phenyl-1H-thieno[3,2-d]pyrimidine-2,4-dione] the value was 11.3 nM.
In the case of `COc1cccc2c1CC[C@H]1CN(CCn3c(=O)[nH]c4c(C)c(C)ccc4c3=O)C[C@@H]21` [3-[2-(6-Methoxy-1,3,3a,4,5,9b-hexahydro-benzo[e]isoindol-2-yl)-ethyl]-7,8-dimethyl-1H-quinazoline-2,4-dione], the inhibition constant (Ki) was 1.32 nM.
Regarding `COc1cccc2c1CC[C@H]1CN(CCn3c(=O)[nH]c4cc([N+](=O)[O-])ccc4c3=O)C[C@@H]21` [3-[2-(6-Methoxy-1,3,3a,4,5,9b-hexahydro-benzo[e]isoindol-2-yl)-ethyl]-7-nitro-1H-quinazoline-2,4-dione], affinity was put at a Ki of 3.33 nM.
Turning to `COc1cccc2c1CC[C@H]1CN(CCn3c(=O)[nH]c4cccc(Cl)c4c3=O)C[C@@H]21` [5-Chloro-3-[2-(6-methoxy-1,3,3a,4,5,9b-hexahydro-benzo[e]isoindol-2-yl)-ethyl]-1H-quinazoline-2,4-dione], the Ki was 0.92 nM.
For `COc1cc2c(=O)n(CCN3C[C@@H]4CCc5c(OC)cccc5[C@@H]4C3)c(=O)n(C)c2cc1OC` [6,7-Dimethoxy-3-[2-(6-methoxy-1,3,3a,4,5,9b-hexahydro-benzo[e]isoindol-2-yl)-ethyl]-1-methyl-1H-quinazoline-2,4-dione] the value was 3.31 nM.
For `COc1cc2[nH]c(=O)n(CCN3C[C@@H]4CCc5c(OC)cccc5[C@@H]4C3)c(=O)c2cc1OC` [6,7-Dimethoxy-3-[2-(6-methoxy-1,3,3a,4,5,9b-hexahydro-benzo[e]isoindol-2-yl)-ethyl]-1H-quinazoline-2,4-dione] the value was 6.46 nM; for `COc1cc2c(cc1OC)C(=O)N(CCN1C[C@@H]3CCc4c(OC)cccc4[C@@H]3C1)CN2` [6,7-Dimethoxy-3-[2-(6-methoxy-1,3,3a,4,5,9b-hexahydro-benzo[e]isoindol-2-yl)-ethyl]-2,3-dihydro-1H-quinazolin-4-one], 95.2 nM.
For `COc1cc2c(cc1OC)NC(=O)N(CCN1C[C@@H]3CCc4c(OC)cccc4[C@@H]3C1)C2` [6,7-Dimethoxy-3-[2-(6-methoxy-1,3,3a,4,5,9b-hexahydro-benzo[e]isoindol-2-yl)-ethyl]-3,4-dihydro-1H-quinazolin-2-one] the value was 191 nM.
`COc1cc2ncn(CCN3C[C@@H]4CCc5c(OC)cccc5[C@@H]4C3)c(=O)c2cc1OC` [6,7-Dimethoxy-3-[2-(6-methoxy-1,3,3a,4,5,9b-hexahydro-benzo[e]isoindol-2-yl)-ethyl]-3H-quinazolin-4-one]: the Ki was found to be 15.3 nM.
Molecule `COc1cc2[nH]c(=O)n(CCN3C[C@@H]4CCc5c(OC)cccc5[C@@H]4C3)c(=O)c2cc1Cl` [6-Chloro-7-methoxy-3-[2-(6-methoxy-1,3,3a,4,5,9b-hexahydro-benzo[e]isoindol-2-yl)-ethyl]-1H-quinazoline-2,4-dione] returned a Ki of 9.27 nM.
Molecule `COc1ccc2[nH]c(=O)n(CCN3C[C@@H]4CCc5c(OC)cccc5[C@@H]4C3)c(=O)c2c1` [6-Methoxy-3-[2-(6-methoxy-1,3,3a,4,5,9b-hexahydro-benzo[e]isoindol-2-yl)-ethyl]-1H-quinazoline-2,4-dione] yielded an inhibitory constant (Ki) of 3.76 nM.
The molecule `COc1cc2[nH]c(=O)n(CCN3C[C@@H]4CCc5c(OC)cccc5[C@@H]4C3)c(=O)c2s1` [6-Methoxy-3-[2-(6-methoxy-1,3,3a,4,5,9b-hexahydro-benzo[e]isoindol-2-yl)-ethyl]-1H-thieno[3,2-d]pyrimidine-2,4-dione] yielded an inhibition constant (Ki) of 0.74 nM.
The result for `COc1cccc2c1CC[C@H]1CN(CCn3c(=O)[nH]c4c(C)c(OC)sc4c3=O)C[C@@H]21` [6-Methoxy-3-[2-(6-methoxy-1,3,3a,4,5,9b-hexahydro-benzo[e]isoindol-2-yl)-ethyl]-7-methyl-1H-thieno[3,2-d]pyrimidine-2,4-dione] reads 7.14 nM.
Molecule `COc1cccc2c1CC[C@H]1CN(CCn3c(=O)[nH]c4cc(Cl)ccc4c3=O)C[C@@H]21` [7-Chloro-3-[2-(6-methoxy-1,3,3a,4,5,9b-hexahydro-benzo[e]isoindol-2-yl)-ethyl]-1H-quinazoline-2,4-dione] registered a Ki of 2.71 nM.
Take `COc1cccc2c1CC[C@H]1CN(CCn3c(=O)[nH]c4c(C(C)C)c(OC)sc4c3=O)C[C@@H]21` [7-Isopropyl-6-methoxy-3-[2-(6-methoxy-1,3,3a,4,5,9b-hexahydro-benzo[e]isoindol-2-yl)-ethyl]-1H-thieno[3,2-d]pyrimidine-2,4-dione]: the Ki came to 2.31 nM.
